Experimental data taken from patent US20250380697A1, “ISOXAZOLINE DERIVATIVE COMPOUND AND INSECTICIDAL COMPOSITION COMPRISING SAME” (KYUNG NONG CORPORATION, priority 2022, published 2025).

Experiments:
Assay type in all cases: in vivo
[1] = test system: Frankliniella occidentalis; experiment: Pesticidal activity against Frankliniella occidentalis, spray method; settings: 48 h; for mortality at 100 ppm: read-out: mortality rate against Frankliniella occidentalis
Excerpt: A water-soaked filter paper (9.0 cm in diameter) was placed in an insect breeding dish (Lab Guide®) with a diameter of 9.0 cm and a height of 4.0 cm, and then parafilm (width 4.0 cm×height 4.0 cm) was placed thereon. Before treating with a pesticide composition, 10 adult Frankliniella occidentalis were inoculated per petri dish using a No. 4 brush. In this case, Frankliniella occidentalis adults used were those purchased from the Bio Utilization Institute (Andong, Korea). Then, each of the pesticide compositions prepared in Examples (a diluted solution in which each of the compounds of Synthesis Examples (concentration: 100 ppm) was diluted; the solvent=distilled water+acetone 50,000 mg/L+Triton X-100 100 mg/L) was loaded into a 100 mL small sprayer, and sprayed 10-12 times at a distance of 30 cm and a height of 50 cm, and one cotyledons of soybean, which is a host plant, were added one at a time. Then, the Frankliniella occidentalis adults were stored under the conditions of 16 hours of light and 8 hours of darkness, 25±1° C., and relative humidity of 50-60%, and the number of live Frankliniella occidentalis adults was counted 48 hours after the inoculation. Thereafter, the larvae mortality rate was calculated in the same manner as in Test Example 1 above.

Thrips tabaci Lindeman = experiment: Pesticidal activity against Thrips tabaci Lindeman, spray method; settings: adults, counted 24 and 48 hours, time not given, read-out: mortality rate, Thrips tabaci Lindeman
Excerpt: A water-soaked filter paper (9.0 cm in diameter) was placed in an insect breeding dish (Lab Guide®) with a diameter of 9.0 cm and a height of 4.0 cm, and then parafilm (width 4.0 cm×height 4.0 cm) was placed thereon. Before being treated with a pesticide composition, 10 adult Thrips tabaci Lindeman were inoculated per petri dish using a No. 4 brush. In this case, Thrips tabaci Lindeman adults used were those collected in a place near the Andong National University (Korea) and bred for multiple generations. Then, the pesticide composition where the compound of Synthesis Example 2 was diluted (the solvent=distilled water+acetone 50,000 mg/L+Triton X-100 100 mg/L) was loaded into a 100 mL small sprayer, and sprayed 10-12 times at a distance of 30 cm and a height of 50 cm, and one cotyledons of soybean, which is a host plant, were added one at a time. Then, the Thrips tabaci Lindeman adults were stored under the conditions of 16 hours of light and 8 hours of darkness, 25±1° C., and relative humidity of 50-60%, and the number of live Thrips tabaci Lindeman adults was counted 24, and 48 hours after the inoculation. Thereafter, the larvae mortality rate was calculated in the same manner as in Test Example 1 above.

Phaedon brassicae = experiment: Pesticidal activity against Phaedon brassicae, leaf-dipping method; settings: counted 24, 48, 72 hours, time not given, read-out: mortality rate, Phaedon brassicae
Method: Cabbage (Daiya) leaves were cut into pieces with a diameter of 5.8 cm, dipped in the pesticide composition where the compound of Synthesis Example 2 was diluted (the solvent=distilled water+acetone 50,000 mg/L+Triton X-100 100 mg/L) for 30 seconds, and sufficiently shade-dried. Then, the shade-dried cabbage leaves were is placed in a petri dish (8.8 cm in diameter) covered with filter paper and repeatedly inoculated 3-5 times with the larvae of Phaedon brassicae, 10 larvae per inoculation. In particular, the Phaedon brassicae larvae used were those which were bred in the Andong National University (Korea) for multiple generations.
After the inoculation, the Phaedon brassicae larvae were stored under the conditions of 16 hours of light and 8 hours of dark, 25±1° C. and 50-60% relative humidity, and the number of live Phaedon brassicae larvae was counted 24, 48, and 72 hours after the inoculation. Thereafter, the larvae mortality rate was calculated in the same manner as in Test Example 1 above.

Spodoptera litura = experiment: Pesticidal activity against Spodoptera litura, leaf-dipping method; settings: 48 h, read-out: mortality rate against Spodoptera litura
Method: Cabbage (Daiya) leaves were cut into pieces with a diameter of 5.8 cm, dipped in each of the pesticide compositions prepared in Examples (a 5% acetone solution in which each of the compounds of Synthesis Examples (concentration: 100 ppm) was diluted) for 30 seconds, and sufficiently shade-dried. Then, the shade-dried cabbage leaves were placed in a petri dish (8.8 cm in diameter) covered with a filter paper and repeatedly inoculated 3 times with the second instar larvae of Spodoptera litura, 10 larvae per inoculation. In this case, Spodoptera litura larvae used were those which were purchased from the Bio Utilization Institute (Andong, Korea). Then, the Spodoptera litura larvae were stored under the conditions of 16 hours of light and 8 hours of dark, 25±1° C., and relative humidity of 50-60%, and the number of live Spodoptera litura larvae was counted 48 hours after the inoculation. Thereafter, the larvae mortality rate was calculated in the same manner as in Test Example 1 above.

Plutella xylostella = experiment: Pesticidal activity against Plutella xylostella, leaf-dipping method; settings: 48 h, read-out: larvae mortality rate against Plutella xylostella
Method: Cabbage (Daiya) leaves were cut into pieces with a diameter of 5.8 cm, dipped in each of the pesticide compositions prepared in Examples (a 5% acetone solution in which each of the compounds of Synthesis Examples (concentration: 100 ppm) was diluted) for 30 seconds, and sufficiently shade-dried. Then, the shade-dried cabbage leaves were placed in a petri dish (8.8 cm in diameter) covered with a filter paper and repeatedly inoculated 3 times with third instar larvae of Plutella xylostella, 10 larvae per inoculation. In particular, Plutella xylostella larvae used were those which were collected in a place near Gyeongju (Korea) in 2000 and bred in a breeding room for multiple generations. Then, the Plutella xylostella larvae were stored under the conditions of 16 hours of light and 8 hours of dark, 25±1° C., and relative humidity of 50-60%, and the number of live Plutella xylostella larvae was counted 48 hours after the inoculation. Thereafter, the larvae mortality rate was calculated by correcting the density after treatment based on the density before treatment, as shown in Equation 1 and Equation 2 below, and converting the same into the corrected mortality rate for untreated (Reference: A method of computing the effectiveness of an insecticide. J. Econ. Entomol. 18:265˜267. Abbott, 1925).

[2] = read-out: mortality rate, Frankliniella occidentalis

CCN1OC[C@@H](NC(=O)c2ccc(C3=NO[C@@](c4cc(Cl)c(F)c(Cl)c4)(C(F)(F)F)C3)cc2C)C1=O [Comparative Example 3, isocycloseram]
mortality at 5 ppm [1, 2]: 100%
mortality at 10 ppm [1, 2]: 100%
mortality at 1 ppm (Thrips tabaci Lindeman; 1 ppm): 66%
mortality at 3 ppm (Thrips tabaci Lindeman; 3 ppm): 76%
mortality at 10 ppm (Thrips tabaci Lindeman; 10 ppm): 90%
mortality at 1 ppm (Phaedon brassicae; 1 ppm): 100%
mortality at 3 ppm (Phaedon brassicae; 3 ppm): 100%
mortality at 10 ppm (Phaedon brassicae; 10 ppm): 100%

Cc1cc(C2=NOC(c3cc(Cl)cc(Cl)c3)(C(F)(F)F)C2)ccc1C(=O)NC(=O)C1CCC1 (centres unmarked) [Synthesis Example 32]
mortality at 100 ppm (Spodoptera litura): ≥ 80%
mortality at 100 ppm (Plutella xylostella): ≥ 80%
mortality at 100 ppm [1]: ≥ 80%

Cc1cc(C2=NOC(c3cc(Cl)cc(C(F)(F)F)c3)(C(F)(F)F)C2)ccc1C(=O)NC(=O)c1cc(C2CC2)on1 (centres unmarked) [Synthesis Example 84]
mortality at 100 ppm (Spodoptera litura): ≥ 80%
mortality at 100 ppm (Plutella xylostella): ≥ 80%
mortality at 100 ppm [1]: ≥ 80%

Cc1cc(C2=NOC(c3cc(Cl)cc(Cl)c3)(C(F)(F)F)C2)ccc1C(=O)NC(=O)C1CCCC1 (centres unmarked) [Synthesis Example 68]
mortality at 100 ppm (Spodoptera litura): ≥ 80%
mortality at 100 ppm (Plutella xylostella): ≥ 80%
mortality at 100 ppm [1]: ≥ 80%

Cc1cc(C2=NOC(c3cc(Cl)cc(Cl)c3)(C(F)(F)F)C2)ccc1C(=O)NC(=O)C1(F)CC1 (centres unmarked) [Synthesis Example 49]
mortality at 100 ppm (Spodoptera litura): ≥ 80%
mortality at 100 ppm (Plutella xylostella): ≥ 80%
mortality at 100 ppm [1]: ≥ 80%

Cc1cc(C2=NOC(c3cc(Cl)cc(Cl)c3)(C(F)(F)F)C2)ccc1C(=O)NC(=O)c1cn(C)nc1C(F)F (centres unmarked) [Synthesis Example 45]
mortality at 100 ppm (Spodoptera litura): ≥ 80%
mortality at 100 ppm (Plutella xylostella): ≥ 80%
mortality at 100 ppm [1]: ≥ 80%

Cc1cc(C2=NOC(c3cc(Cl)cc(Cl)c3)(C(F)(F)F)C2)ccc1C(=O)NC(=O)C1CC12CCC2 (centres unmarked) [Synthesis Example 52]
mortality at 100 ppm (Spodoptera litura): ≥ 80%
mortality at 100 ppm (Plutella xylostella): ≥ 80%
mortality at 100 ppm [1]: ≥ 80%

Cc1cc(C2=NOC(c3cc(Cl)cc(C(F)(F)F)c3)(C(F)(F)F)C2)ccc1C(=O)N(C(=O)C1CC1)C(=O)C1CC1 (centres unmarked) [Synthesis Example 22]
mortality at 100 ppm (Spodoptera litura): ≥ 80%
mortality at 100 ppm (Plutella xylostella): ≥ 80%
mortality at 100 ppm [1]: ≥ 80%

Cc1cc(C2=NOC(c3cc(Cl)cc(C(F)(F)F)c3)(C(F)(F)F)C2)ccc1C(=O)N(CC1CC1)C(=O)C1CC1 (centres unmarked) [Synthesis Example 21]
mortality at 100 ppm (Spodoptera litura): ≥ 80%
mortality at 100 ppm (Plutella xylostella): ≥ 80%
mortality at 100 ppm [1]: ≥ 80%

Cc1cc(C2=NOC(c3cc(Cl)cc(C(F)(F)F)c3)(C(F)(F)F)C2)ccc1C(=O)NC(=O)C1(C(F)(F)F)CC1 (centres unmarked) [Synthesis Example 29]
mortality at 100 ppm (Spodoptera litura): ≥ 80%
mortality at 100 ppm (Plutella xylostella): ≥ 80%
mortality at 100 ppm [1]: ≥ 80%

Cc1cc(C2=NOC(c3cc(Cl)cc(C(F)(F)F)c3)(C(F)(F)F)C2)ccc1C(=O)N(C)C(=O)C1CC1 (centres unmarked) [Synthesis Example 11]
mortality at 100 ppm (Spodoptera litura): ≥ 80%
mortality at 100 ppm (Plutella xylostella): ≥ 80%
mortality at 100 ppm [1]: ≥ 80%

Cc1cc(C2=NOC(c3cc(Cl)cc(C(F)(F)F)c3)(C(F)(F)F)C2)ccc1C(=O)NC(=O)c1ccc(C#N)cc1 (centres unmarked) [Synthesis Example 76]
mortality at 100 ppm (Spodoptera litura): ≥ 80%
mortality at 100 ppm (Plutella xylostella): ≥ 80%
mortality at 100 ppm [1]: ≥ 80%
